11 compounds from patent publication US10836767B2, “Serum stable pro-coelenterazine analogues” (PROMEGA CORPORATION, priority 2017, dated 2020) can be followed below.

Entries after “also recorded” stand apart in the source; their conditions may differ.

Series [1] relates to HEK 293 cells transiently transfected with SmBiT-PRKACA and LgBiT-PRKAR2A. Description: Live cell assay, luminescent signal decay over time in HEK293 cells expressing the PKA NanoBiT pair. Type of series: cell-based. The following applies: DMEM, 4% FBS; for strength of signal relative to PBI-4377: concentration above 20 uM; for luminescent signal decay: almost independent of concentration. As for the experimental part: Compounds WZ-0429, WZ-0439, WZ-0454, WZ-0441, WZ-0451. WZ-0416, WZ-0420, WZ-0461 and WZ-0419 were tested in HEK 293 cells transiently transfected plasmid DNA constructs for SmBiT-PRKACA and LgBiT-PRKAR2A expressed via the HSV-TK promoter in DMEM media with 4% FBS, and the luminescent signal decays were monitored over time. […] In contrast, the serum instable compounds, WZ-0429. […] The evaluations of compounds WZ-0429, WZ-0439, WZ-0454, WZ-0441, WZ-0451. WZ-0416, WZ-0420, WZ-0461 and WZ-0419 were performed by the following protocol.
Day 1, plate cells. HEK293 cells were grow in complete medium [DMEM+10% FBS+1× NEAA]. Cells were plated at approximately 10,000 cells per well (100 μL) in 96-well plates (Corning 3917).
Day 2, transient transfection. Plasmid DNA constructs for SmBiT-PRKACA and LgBiT-PRKAR2A expressed via the HSV-TK promoter were diluted to 6.25 ng/μL in Opti-MEM® I and FuGENE HD was added at a 3:1 lipid:DNA ratio. After a 5-10 minute incubation at room temperature, 8 μl of lipid:DNA solution was added per well, and cells were incubated in a 37° C., 5% CO2 incubator overnight.
Day 3, live cell assay. Compounds were dissolved to 50 mM final in DMSO. Compounds were diluted in DMSO to give 33.3, 16.7 and 6.7 mM stocks. DMSO stock solutions were diluted 667-fold in Opti-MEM® I to give 1× solutions. Complete medium was aspirated and replaced with the respective 1× solution containing 75, 50, 25 or 10 uM of the respective compounds (0.15% v/v DMSO final), such as WZ-0429, WZ-0439, WZ-0454, WZ-0441WZ-0451, WZ-0416, WZ-0420 and WZ-0419, but containing 40, 30, 20 or 10 μM as an instead for compound WZ-0461. Luminescence was measured on a GloMax Multi Plus luminometer every 15 minutes at 37° C. using a 1 second integration time.

The subject of series [2] is CMV promoter-NanoLuc® gene transfected HEK293 cells. Kind of series: Live cell reporter gene assay, luminescent signal decay over time with/without porcine liver esterase (PLE). Type of series: cell-based. The settings on record: DMEM, 10% FBS. How it is done:
The synthesized pro-coelenterazine or pro-furimazine compounds were evaluated in a live cell reporter gene assay. As shown in FIGS. 3A-C, the luminescent signal decays were monitored over time in HEK293 cells in DMEM media with 10% FBS transfected with 10 ng/well of CMV promoter-NanoLuc® gene with/without adding exogenous esterase porcine liver esterase (PLE) with three representative pro-coelenterazine analogues, e.g. serum instable compound WZ-0308, traditional live cell pro-substrate PBI-4377, and disclosed serum stable compound WZ-0324. The evaluations were performed by the following protocol.
Day 1: Plate cells. HEK293 cells were grown in complete medium (DMEM+10% FBS+1× Non-Essential Amino Acids (NEAA)). The cells were harvested at passasge 6 (˜95% confluent), by a procedure of: washing with DPBS, treating the cells with TrypLE Express until cells dislodged, adding 4× volumes of complete medium, pelleting at 188×g for 2 minutes, and suspending the cells in complete medium to 7.35E4 cells/mL. The cells were plated 100 μL per well into the inner 60 wells of 96-well plates (7,350 cells per well): 100 μL DPBS in the 36 outside wells and 100 μL DPBS between wells. The cells were than incubated overnight at 37° C., 5% CO2.
Day 2: Transfection. Two two master mixes (MM) were made: MM#1: 1.63 μL prep #1; 9.5 μL prep #3; 1.9 mL OM1; and MM#2: 2.9 uL prep #2; 9.5 μL prep #3; 1.9 mL OM1. 35.6 μl FuGENE HD was added to each MM and mixed by pipetting up/down. The mixture was incubated for ˜10 minutes at room temperature. Next, 8 μL of the mixture was added per well using single channel repeater pipette; n=3 per condition. The mixture was then incubated for ˜24 hours at 37° C., 5% CO2.
(§1) Day 3: Live cell assay. Stocks of tested compounds in DMSO (500×) were prepared by serial dilution of 50 mM stock with DMSO. The Medium+/− porcine liver esterase (PLE) at room temperature was prepared by adding 1 and 0.333 ug/ml PLE in CO2 IM+10% FBS. CO2 IM+10% FBS with no added PLE was also prepared. Next, medium+test compound solutions (room temperature) was prepared by the steps of: adding 2 mL of respective medium per channel, adding 4 μL respective tested compound stock per channel and mixing by pipetting up/down 10-15×. The final DMSO concentration was 0.2% v/v. The DMSO solution was dropped to the bottom of the channel, showing precipitation for the higher concentrations. After pipetting up/down, solutions with WZ-0324 at a final concentration of ≥50 uM were noticeably hazy (100 uM>75 uM>50 uM), in some cases even after extended incubation at 37° C. The Solutions were allowed to stand at room temperature for 15-20 minutes prior to addition to cells (P1->P2->P3).
The medium was aspirated and replaced with 200 μL/well of respective medium+tested compound solution. DPBS was added to 200 μL total to outside 36× wells. The system was quickly moved to respective GMM+ to start RLU measurements at 37° C. The measuments were carried out under the following conditions: 1 second integration time; RLU measurement every 15 minutes; the lid was removed for the overnight RLU measurements; and initial RLU measurement would be <37° C. owing to the addition of room temperature medium and cooling of the plate.
Data analysis: average RLU plotted for n=3; error represented as standard deviation was included in each imbedded Prism file, but not shown for the sake of clarity in interpreting the curves.
Background: Reporter assays use an easily measured gene product as a stand-in for the process of interest.

A short description of series [3]: Stability test by HPLC in DMSO or DMEM media with or without fetal bovine serum. Type of series: in vitro ADME. The settings on record: 40 μM; DMEM media with 10% FBS; 10 hours. How it is done:
“Serum stability” refers to the stability of a compound in media or culture that includes serum. The serum as used herein may include, but is not limited to, fetal bovine serum (FBS). Serum stability of a compound as used herein generally may be characterized by the extent of degradation of such compound in a serum over a period of time. For example, a compound may degrade by less than 25%, less than 20%, less then 15%, or even less than 10% in FBS over a period of 24 hours or longer. For live cell assays, serum (such as FBS) is a component to maintain cell health. The degree of degradation of the disclosed compounds or the other pro-coelenterazine analogues in DMSO control, or DMEM media with/without FBS, can be monitored by HPLC using specific elution solvent/buffer (e.g. 0.1% TFA and acetonitrile) under the same condition at certain time of points. The percentage of purity can be calculated by the peak area of the tested compound divided by the total peak areas including tested compound and degradation compounds at their corresponding retention time at certain absorbance wavelength (e.g. 260 nm) at certain time point in media with/without FBS. The changes of purity for a given compound over time indicate the degree of instability of the compound in media/culture with/without serum.
The tested compounds were dissolved in DMSO stock at a concentration of 20 mM. […]

Series [4] can be described thus: Haze (solubility) observation of medium + test compound solutions. Type of series: physicochemical. The settings on record: for concentration above which haze was observed: medium + compound solution. How it is done: as §1

Consider `COC(C)(C)C(=O)OCOc1c(Cc2ccco2)nc2c(Cc3ccccc3)nc(-c3ccccc3)cn12` [WZ-0451, ((8-benzyl-2-(furan-2-ylmethyl)-6-phenylimidazo[1,2-a]pyrazin-3-yl)oxy)methyl 2-methoxy-2-methylpropanoate], for which, in series [1], the “strength of signal relative to PBI-4377” value was found to be 10 times.

`O=C(OCOc1c(Cc2ccco2)nc2c(Cc3ccccc3)nc(-c3ccccc3)cn12)c1ccccc1` [WZ-0416, ((8-benzyl-2-(furan-2-ylmethyl)-6-phenylimidazo[1,2-a]pyrazin-3-yl)oxy)methyl benzoate]: the “signal strength (brightness) relative to PBI-4377” value in series [1] is listed as “comparable or slightly better”.

Take `O=C(OCOc1c(Cc2ccco2)nc2c(Cc3ccccc3)nc(-c3ccccc3)cn12)c1ccco1` [WZ-0420, ((8-benzyl-2-(furan-2-ylmethyl)-6-phenylimidazo[1,2-a]pyrazin-3-yl)oxy)methyl furan-2-carboxylate]: the “strength of signal relative to PBI-4377” value in series [1] is 10 times.

As for `O=C(OCOc1c(Cc2ccco2)nc2c(Cc3ccccc3)nc(-c3ccccc3)cn12)c1ccoc1` [WZ-0461, ((8-benzyl-2-(furan-2-ylmethyl)-6-phenylimidazo[1,2-a]pyrazin-3-yl)oxy)methyl furan-3-carboxylate], in series [1], the “signal strength (brightness) relative to PBI-4377” value is given as “comparable or slightly better”.

As to `CC(=O)OCOc1c(Cc2ccco2)nc2c(Cc3ccccc3)nc(-c3ccccc3)cn12` [WZ-0308], the “signal at the initial time point” value in series [2] was “highest signal”. In addition, the luminescent signal decay result in series [2] (FIG. 3A) was “rapid signal decay”. For the same compound, the “period of rapid luminescent signal decay” value in series [2] (even without exogenous PLE) lay in the range of 2 to 3 h.

`O=C(OCOc1c(Cc2ccco2)nc2c(Cc3ccccc3)nc(-c3ccccc3)cn12)C1CCCO1` (centres unmarked) [WZ-0429]: in series [1], the luminescent signal decay entry is recorded as “rapid signal decay”.

As to `CC(C)C(=O)OCOc1c(Cc2ccco2)nc2c(Cc3ccccc3)nc(-c3ccccc3)cn12` [WZ-0415], the “degradation (HPLC purity change)” value in series [3] is “approximately 50%”.

Regarding `COC(OC)C(=O)OCOc1c(Cc2ccco2)nc2c(Cc3ccccc3)nc(-c3ccccc3)cn12` [WZ-0454], in series [1], the luminescent signal decay result is “rapid signal decay”.

For `C=CCOC(=O)N1CCC(C(=O)OCOc2c(Cc3ccco3)nc3c(Cc4ccccc4)nc(-c4ccccc4)cn23)C1` (centres unmarked) [WZ-0441], the luminescent signal decay entry in series [1] is reported as “rapid signal decay”.

In the case of `O=C(OCOc1c(Cc2ccco2)nc2c(Cc3ccccc3)nc(-c3ccccc3)cn12)C1CCOC1` (centres unmarked) [WZ-0439], in series [1], the luminescent signal decay entry is listed as “rapid signal decay”.

Regarding `COCCOCCOCC(C)(C)C(=O)OCOc1c(Cc2ccco2)nc2c(Cc3ccccc3)nc(-c3ccccc3)cn12` [WZ-0324, ((8-benzyl-2-(furan-2-ylmethyl)-6-phenylimidazo[1,2-a]pyrazin-3-yl)oxy)methyl 3-(2-(2-methoxyethoxy)ethoxy)-2,2-dimethylpropanoate], the “final concentration at which solutions were noticeably hazy” value in series [4] (CO2 IM + 10% FBS, 0.2% v/v DMSO, after pipetting up/down) is no less than 50 µM. In addition, the entries for the “concentration above which haze was observed” value in series [4] and in series [4] (listed as WZ-324) were “above 70 μM” and greater than 70 µM, respectively. Further, the “luminescence after addition of exogenous PLE esterase versus without PLE” value in series [2] (PLE added) is given as “significantly enhanced; also recorded: significantly higher luminescence”. Further, the “signal in the absence of exogenous PLE esterase, versus PBI-4377” value in series [2] (no PLE) is given as “higher signal”.
